In the METLIN SMRT retention time set (Domingo-Almenara et al. 2019) one finds RP-LC retention time data, which are given here for 80 molecules.

This series in a line: gradient 5% acetonitrile 3 min, to 50% in 2 min, to 85% in 15 min, held 3 min, 100 µL/min. To be noted: column: Zorbax Extend-C18 2.1 x 50 mm; eluents: water / acetonitrile, 0.1% formic acid. The method in brief:
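Values are retention times taken from adduct peaks that software picked and an analyst inspected. The pure standards were run as mixtures of ~100 molecules on HPLC linked to a quadrupole time-of-flight mass spectrometer, in positive and negative ionization mode. A Zorbax Extend-C18 column (2.1 × 50 mm, 1.8 μm) was used at 100 μL/min with water and acetonitrile, each including 0.1% formic acid.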
Molecule `CCOc1ccc(CNC(=O)Cn2cnc3onc(C)c3c2=O)cc1` gave an RP-LC retention time of 755 s.

Molecule `CC1CCN(C(=O)CC2CCN(S(=O)(=O)c3ccc(Cl)s3)CC2)CC1` came in with an RP-LC retention time of 1040 s.

As to `C[C@H]1CN(S(=O)(=O)c2ccc(F)cc2)C[C@@H]1c1nc(-c2ccccc2)no1`, the RP-LC retention time was 1120 s.

With `CCCNC(=O)c1ccc2c(c1)CCCN2S(=O)(=O)CC`, the RP-LC retention time came to 753 s.

Molecule `CSc1ccc(-c2nc3cnccn3c2Nc2cc(C)cc(C)c2)cc1` came in with an RP-LC retention time of 1070 s.

With `O=C(Cn1cnc2nc(N3CCC(C(=O)NC4CC4)CC3)sc2c1=O)Nc1cc(F)ccc1F`, the RP-LC retention time came to 693 s.

In turn, `Cc1ccc(C)c(NC(=O)N2CCC3(CC2)NC(=O)c2ccccc2O3)c1` gave an RP-LC retention time of 766 s.

`Cc1ccc(S(=O)(=O)N2CCCC(Cn3c(C4CC4)nc4cccnc43)C2)cc1` (stereo not given) showed an RP-LC retention time of 790 s.

Molecule `O=C(CN1CCCCC1c1nc(-c2cccc(F)c2)no1)Nc1cccc(F)c1` (stereo not given) showed an RP-LC retention time of 967 s.

With `Cc1ccc(Cn2c(N3CCCC(C(=O)NCC4CC4)C3)nc3ccsc3c2=O)cc1` (stereo not given), the RP-LC retention time is 894 s.

`CC(C)NC(=O)c1ccc(OCC2CCCN2C(=O)Cc2cccs2)cc1` (stereo not given) had an RP-LC retention time of 807 s.

`COc1ccc(Cl)cc1S(=O)(=O)N1CCC(C(=O)NCCc2csc(C)n2)CC1`: the RP-LC retention time was determined as 732 s.

`Cc1ccc(-c2csc(-n3nc(C)c(CC(=O)NCc4ccccc4)c3C)n2)cc1` gave an RP-LC retention time of 1160 s.

The molecule `Cc1nnc2ccc(NC(C)C)nn12` registered an RP-LC retention time of 676 s.

`CCC(NC(=O)c1cn(C)c2ncccc12)c1cccs1` (stereo not given) yielded an RP-LC retention time of 800 s.

Molecule `CCc1ccc(C(=O)N2CC3CN(S(=O)(=O)c4cccc(C)c4)CC(C2)O3)cc1` yielded an RP-LC retention time of 925 s.

On to `Cc1cccc(-c2noc(-c3nn(-c4ccccc4)ccc3=O)n2)c1`, for which the RP-LC retention time is 898 s.

In the case of `O=C(Cc1ccccc1Cl)Nc1cnc(N2CCCC2)nc1`, the RP-LC retention time worked out at 604 s.

As to `CCN1CCC2(CC1)N=C(c1ccc(C)cc1C)CC(c1cc(Cl)ccc1O)N2` (stereo not given), the RP-LC retention time was found to be 668 s.

Turning to `Cc1ccc(C(=O)N2C[C@@H]3C[C@H]2C[C@@H]3NS(C)(=O)=O)cc1F`, the RP-LC retention time came out at 676 s.

In turn, `COc1ccc(-c2ncc3c(n2)CCN(S(=O)(=O)c2ccc(Cl)s2)C3)cc1` yielded an RP-LC retention time of 1140 s.

In the case of `Cc1cc(C)n(-c2ccc(=O)n(CC(=O)NCc3ccc4c(c3)OCO4)n2)n1`, the RP-LC retention time stood at 668 s.

`NC(=O)C1CCC(=O)N1C1CCN(C(=O)CCC2CCCC2)CC1` (stereo not given) showed an RP-LC retention time of 566 s.

As for `CC(C)c1cc(C(=O)NC2CCCC2)nc2ccnn12`, the RP-LC retention time worked out at 979 s.

Molecule `COCCNC(=O)N(C)CCc1noc(COc2ccc(Cl)cc2)n1` registered an RP-LC retention time of 747 s.

For `CCOc1ccc(NS(=O)(=O)c2ccc3c(c2)CCCC(=O)N3)cc1`, the RP-LC retention time worked out at 709 s.

With `O=C([C@@H]1C[C@H](F)CN1C(=O)c1ccco1)N1CCCCC1`, the RP-LC retention time was determined as 626 s.

`Cc1ccc(CN2N=C(C(=O)N3CCCC3)S(=O)(=O)c3ccccc32)cc1`: the RP-LC retention time turned out to be 895 s.

Take `CN1CCN(CCCNC(=O)CCc2cn(-c3ccccc3)nc2-c2ccc3c(c2)OCO3)CC1`: the RP-LC retention time came to 614 s.

Regarding `Cc1ccc2nc3c(c(C(=O)NC(C)C)c2c1)CCC3`, the RP-LC retention time was 610 s.

The molecule `CCn1ccc2oc(C)c(C(=O)NCc3cccc(F)c3)c2c1=O` yielded an RP-LC retention time of 947 s.

As for `COc1cccc(OCC(=O)Nc2ccc3c(c2)N(C(=O)c2ccco2)CCC3)c1`, the RP-LC retention time amounted to 877 s.

For `CC1CCN(C(=O)c2ccc3c(c2)N(CC(=O)NC(C)C)C(=O)CO3)CC1`, the RP-LC retention time came out at 684 s.

Turning to `O=S(=O)(c1cc(-c2nnc(C3CC3)o2)co1)N1CCN(c2cccc(Cl)c2)CC1`, the RP-LC retention time is 1060 s.

`Cc1ccc(S(=O)(=O)N(C)CC2CCOCC2)cc1C` came in with an RP-LC retention time of 886 s.

In the case of `CCCCOC(=O)CSc1nnc(-c2ccc(Br)cc2)o1`, the RP-LC retention time was 1190 s.

`Cc1[nH]c(C)c(S(=O)(=O)N2CCC(C(=O)NC3CCCCC3)CC2)c1C(=O)N1CCCC1` gave an RP-LC retention time of 676 s.

As for `C/C(=C\c1csc(C)n1)C1C[C@@H]2O[C@]2(C)CCC[C@H](C)[C@H](O)[C@@H](C)C(=O)C(C)(C)[C@@H](O)CC(=O)O1` (stereo not given in full), the RP-LC retention time worked out at 901 s.

`CN(C)C(=O)c1cc2c(s1)CCC(C(=O)N1CCN(Cc3ccccc3)CC1)C2` (stereo not given) yielded an RP-LC retention time of 556 s.

Molecule `O=C(COc1ccccc1)N1[C@H]2CC[C@@H]1c1cnc(-c3ccccc3)nc1C2` gave an RP-LC retention time of 952 s.

`O=C(c1ccccn1)N1CCC(Oc2cc(N3CCCCC3)ncn2)C1` (stereo not given) came in with an RP-LC retention time of 686 s.

`CC1CCN(C(=O)CN2C(=O)C3CCCCN3c3ccc(C(=O)N4CCCC4)cc32)CC1` (stereo not given) registered an RP-LC retention time of 815 s.

`CCOC(=O)c1c(S(=O)(=O)N2CCC(C(=O)Nc3ccc4c(c3)OCO4)CC2)c(C)n(C)c1C` registered an RP-LC retention time of 807 s.

The molecule `CCc1nccn1Cc1nc(-c2ccc(Cl)cc2)no1` had an RP-LC retention time of 670 s.

Regarding `O=C(CN1CCN(Cc2ccccc2)C(=O)C1=O)N1CCN(c2ccccc2F)CC1`, the RP-LC retention time came out at 752 s.

In turn, `O=S(=O)(c1cccc2cccnc12)N1CC[C@@H]2COCCN(Cc3cccnc3)[C@@H]2C1` showed an RP-LC retention time of 600 s.

`Cc1cc(C)c2c(N3CCOCC3)nc(C(=O)N3CCC(C)CC3)nc2n1` showed an RP-LC retention time of 626 s.

`CCOC(=O)CCC(=O)Nc1ccc(S(=O)(=O)N2CCc3ccccc32)cc1` gave an RP-LC retention time of 834 s.

Molecule `Cc1ccc(-n2cc(C(=O)O)nn2)cc1F` yielded an RP-LC retention time of 684 s.

As to `CC(C)NC(=O)N1CCC2(CC1)CCC(O)(CN1CCc3ccccc31)CC2`, the RP-LC retention time amounted to 882 s.

The molecule `CC(=O)Nc1ccc(OC(=O)Oc2ccc(NC(C)=O)cc2)cc1` gave an RP-LC retention time of 724 s.

Regarding `COc1cc(O)ccc1-c1nc2ccc(Br)cn2c1Nc1ccccc1C`, the RP-LC retention time turned out to be 736 s.

`Cn1cc(S(=O)(=O)N2CCCCC2)cc1C(=O)Nc1cccc(F)c1` yielded an RP-LC retention time of 1020 s.

For the molecule `CCN(CC)C(=O)c1ccc(-c2nc3cc(NS(=O)(=O)c4cc(C)ccc4C)ccc3n2C)cc1`, the RP-LC retention time was 739 s.

The molecule `Cn1c(N2CCN(C(=O)c3cccc(Br)c3)CC2)cc(=O)n(C)c1=O` had an RP-LC retention time of 672 s.

On to `Cc1nc(-c2cn(C(C)C)c3ncccc23)sc1C(=O)NCc1ccccc1F`, for which the RP-LC retention time was 1030 s.

`CCCN1C(=O)c2cc(C(=O)NCc3ccc(N(C)C)cc3)nn2CC1(C)C(=O)NC1CCCC1` (stereo not given): the RP-LC retention time worked out at 655 s.

Consider `O=C(NCC1CCN(S(=O)(=O)C2CC2)CC1)Oc1ccccc1`, for which the RP-LC retention time was 745 s.

In turn, `Cc1csc(NC(=O)C2CCN(S(=O)(=O)c3ccc4c(c3)sc(=O)n4C)CC2)n1` came in with an RP-LC retention time of 782 s.

`COc1cccc2nc(NC(=O)c3ccc(Br)s3)sc12` registered an RP-LC retention time of 990 s.

Molecule `Cc1ccc(C)c(-c2nc(-c3cccc(-c4ccn[nH]4)c3)no2)c1` gave an RP-LC retention time of 1190 s.

As for `CCn1cc(-c2nc(C(=O)Nc3cccc(C(=O)OC)c3)cs2)c2cccnc21`, the RP-LC retention time stood at 1060 s.

Molecule `CCCCCN(CC(=O)N1CCNCC1)C(=O)c1cccc(Br)c1` yielded an RP-LC retention time of 664 s.

For `COc1ccccc1-c1noc(C2CCCN2C(=O)Nc2cccc(Cl)c2)n1` (stereo not given), the RP-LC retention time was determined as 941 s.

For the molecule `Cc1ccc(C)c(NC(=O)C2CCCN(S(=O)(=O)c3cc(-c4noc(C)n4)cs3)C2)c1` (stereo not given), the RP-LC retention time was determined as 1060 s.

As for `N#Cc1ccc(-c2nc(-c3ccc4c(c3)nnn4CCC(=O)N3CCOCC3)no2)cc1`, the RP-LC retention time amounted to 786 s.

`COc1nn(C)cc1C(=O)NCC(O)c1ccc(C(F)(F)F)cc1` (stereo not given) showed an RP-LC retention time of 669 s.

`O=C(Cc1cccs1)N1CCc2[nH]cnc2C1c1ccccc1` (stereo not given) came in with an RP-LC retention time of 612 s.

As to `O=C(COc1ccc(Cl)cc1)N1CCN(CC(F)(F)F)CC1`, the RP-LC retention time amounted to 853 s.

With `O=C(NCCCN1CCN(c2ccccc2)CC1)C1CCCN(c2nc3cccnc3s2)C1` (stereo not given), the RP-LC retention time was 643 s.

Take `COc1cccc(C(=O)Nc2cccn3ncnc23)c1`: the RP-LC retention time was 710 s.

`Cc1nc(S(=O)(=O)N2CCc3c(c(-c4nnc(-c5ccccc5F)o4)nn3C)C2)cn1C` had an RP-LC retention time of 703 s.

The molecule `Cc1cc(N2CCN(S(=O)(=O)c3cc(F)ccc3F)CC2)nc(N2CCOCC2)n1` displayed an RP-LC retention time of 660 s.

On to `Cc1ccccc1-c1noc(C2CC(=O)N(c3ccc(Cl)cc3)C2)n1` (stereo not given), for which the RP-LC retention time amounted to 1090 s.

Consider `Cc1cc(NC(=O)C2CCN(C(=O)CSc3nnnn3C)CC2)no1`, for which the RP-LC retention time was 607 s.

Consider `CC(C(=O)NCCN1CCCCCC1)n1c(=O)c(C(F)(F)F)nc2ccccc21` (stereo not given), for which the RP-LC retention time was determined as 713 s.

`Cc1ccc(CNC(=O)C2(C)CCN(C(=O)Nc3cc(Cl)ccc3C)CC2)cc1` came in with an RP-LC retention time of 936 s.

`CC(=O)N(C1CCOCC1)C1CCN(C(=O)Nc2ccccc2)CC1` returned an RP-LC retention time of 655 s.

Take `Cc1ccc(Nc2c(-c3c(F)cccc3Cl)nc3ccc(Br)cn23)cc1`: the RP-LC retention time was determined as 985 s.

`Cc1ccccc1-n1c(-c2ccc(Cl)cc2)cn2c3c(=O)n(C)c(=O)n(C)c3nc12` came in with an RP-LC retention time of 1020 s.
